Calls of active or inactive are those of the source. No cut-off for these calls is given here.
What was measured:
[1] = target: Interleukin-1 beta (Homo sapiens) (UniProt P01584); test: Inhibition of IL-1beta in PMA-differentiated human THP-1 cells at 100 nM co-incubated with compound and LPS for 24 hrs by ELISA relative to control; type: cell-based
[2] = target: Interleukin-1 beta (Homo sapiens) (UniProt P01584); test: Inhibition of IL-1beta in PMA-differentiated human THP-1 cells at 200 nM co-incubated with compound and LPS for 24 hrs by ELISA relative to control; type: cell-based
Mus musculus [3] = test: Anti-inflammatory activity in DSS-induced colitis C57BL/6 mouse model harboring NLRP3 KO assessed as reduction in loss of intestinal crypts in colon tissue at 20 mg/kg, ip administered daily for 10 days by H and E staining based analysis; type: functional, organism-based; settings: time 10.0 day
Mus musculus [4] = test: Anti-inflammatory activity in DSS-induced colitis C57BL/6 mouse model assessed as reduction in loss of intestinal crypts in colon tissue at 5 to 20 mg/kg, ip administered daily for 10 days by H and E staining based analysis; type: functional, organism-based; settings: dose 5-20 mg/kg, time 10.0 day
[5] = Cmax in C57BL/6J mouse at 5 mg/kg, ip measured for 24 hrs by LC-MS/MS analysis; type: ADME, organism-based; settings: in vivo
Mus musculus [6] = test: Anti-inflammatory activity in DSS-induced colitis C57BL/6 mouse model assessed as reduction in NLRP3 level in colon tissue at 5 to 20 mg/kg, ip administered daily for 10 days by IHC analysis; type: functional, organism-based; settings: dose 5-20 mg/kg, time 10.0 day
Mus musculus [7] = test: Anti-inflammatory activity in DSS-induced colitis C57BL/6 mouse model assessed as reduction in weight loss at 5 to 20 mg/kg, ip administered daily for 10 days; type: functional, organism-based; settings: dose 5-20 mg/kg, time 10.0 day
Mus musculus [8] = test: Anti-inflammatory activity in DSS-induced colitis C57BL/6 mouse model assessed as reduction in intestinal mucosal damage in colon tissue at 5 to 20 mg/kg, ip administered daily for 10 days by H and E staining based analysis; type: functional, organism-based; settings: dose 5-20 mg/kg, time 10.0 day
Mus musculus [9] = test: Anti-inflammatory activity in DSS-induced colitis C57BL/6 mouse model harboring NLRP3 KO assessed as reduction in colon length shortening at 20 mg/kg, ip administered daily for 10 days; type: functional, organism-based; settings: time 10.0 day
[10] = Oral bioavailability in C57BL/6J mouse at 5 mg/kg measured for 24 hrs by LC-MS/MS analysis; type: ADME, organism-based; settings: in vivo
[11] = Half life in C57BL/6J mouse at 5 mg/kg, iv measured for 24 hrs by LC-MS/MS analysis; type: ADME, organism-based; settings: in vivo
[12] = Clearance in C57BL/6J mouse at 5 mg/kg, iv measured for 24 hrs by LC-MS/MS analysis; type: ADME, organism-based; settings: in vivo
[13] = Apparent volume of distribution in C57BL/6J mouse at 5 mg/kg, iv measured for 24 hrs by LC-MS/MS analysis; type: ADME, organism-based; settings: in vivo, read-out: Vz
THP-1 [14] = test: Cytotoxicity against PMA-differentiated human THP-1 cells assessed as reduction in cell viability at 50 to 5000 nM incubated for 24 hrs by MTT assay; type: toxicity, cell-based; settings: thp-1, 24 h, 5 µM, dose 50-5000 nM
Mus musculus [15] = test: Anti-inflammatory activity in DSS-induced colitis C57BL/6 mouse model harboring NLRP3 KO assessed as reduction in intestinal mucosal damage in colon tissue at 20 mg/kg, ip administered daily for 10 days by H and E staining based analysis; type: functional, organism-based; settings: time 10.0 day
THP-1 [16] = test: Effect on NLRP3 mRNA expression in PMA-differentiated human THP-1 cells co-incubated with compound and LPS for 24 hrs by qRT-PCR analysis; type: functional, cell-based
Mus musculus [17] = test: Anti-inflammatory activity in DSS-induced colitis C57BL/6 mouse model harboring NLRP3 KO assessed as reduction in inflammatory cell infiltration in colon tissue at 20 mg/kg, ip administered daily for 10 days by H and E staining based analysis; type: functional, organism-based; settings: time 10.0 day
Mus musculus [18] = test: Anti-inflammatory activity in DSS-induced colitis C57BL/6 mouse model harboring NLRP3 KO assessed as reduction in IL-1beta level at 20 mg/kg, ip administered daily for 10 days […]; type: functional, organism-based; settings: time 10.0 day
Mus musculus [19] = test: Anti-inflammatory activity in DSS-induced colitis C57BL/6 mouse model assessed as reduction in IL-1beta level in colon tissue at 5 to 20 mg/kg, ip administered daily for 10 days by IHC analysis; type: functional, organism-based; settings: dose 5-20 mg/kg, time 10.0 day
[20] = AUC (0 to infinity) in C57BL/6J mouse at 5 mg/kg, iv measured for 24 hrs by LC-MS/MS analysis; type: ADME, organism-based; settings: in vivo
[21] = Volume of distribution at steady state in C57BL/6J mouse at 5 mg/kg, iv measured for 24 hrs by LC-MS/MS analysis; type: ADME, organism-based; settings: in vivo, read-out: Vdss
Mus musculus [22] = test: Anti-inflammatory activity in DSS-induced colitis C57BL/6 mouse model assessed as reduction in inflammatory cell infiltration in colon tissue at 5 to 20 mg/kg, ip administered daily for 10 days by H and E staining based analysis; type: functional, organism-based; settings: dose 5-20 mg/kg, time 10.0 day
[23] = AUC (0 to t) in C57BL/6J mouse at 5 mg/kg, iv measured for 24 hrs by LC-MS/MS analysis; type: ADME, organism-based; settings: in vivo
[24] = Half life in C57BL/6J mouse at 5 mg/kg, ip measured for 24 hrs by LC-MS/MS analysis; type: ADME, organism-based; settings: in vivo
[25] = AUC (0 to t) in C57BL/6J mouse at 5 mg/kg, ip measured for 24 hrs by LC-MS/MS analysis; type: ADME, organism-based; settings: in vivo
[26] = AUC (0 to infinity) in C57BL/6J mouse at 5 mg/kg, ip measured for 24 hrs by LC-MS/MS analysis; type: ADME, organism-based; settings: in vivo
Mus musculus [27] = test: Anti-inflammatory activity in DSS-induced colitis C57BL/6 mouse model assessed as reduction in colon tissue shortening at 5 to 20 mg/kg, ip administered daily for 10 days; type: functional, organism-based; settings: dose 5-20 mg/kg, time 10.0 day
Mus musculus [28] = test: Anti-inflammatory activity in DSS-induced colitis C57BL/6 mouse model assessed as suppression of disease activity index administered intraperitoneally daily for 10 days; type: functional, organism-based; settings: dose 5-20 mg/kg, route ip, time 10.0 day

Chain of Interleukin-1 beta (Homo sapiens) (P01584 117-269 limits assumed): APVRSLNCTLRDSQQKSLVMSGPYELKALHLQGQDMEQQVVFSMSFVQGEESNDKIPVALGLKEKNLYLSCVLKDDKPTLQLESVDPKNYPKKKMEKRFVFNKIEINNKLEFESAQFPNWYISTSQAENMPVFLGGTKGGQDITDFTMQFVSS

## COc1cc(/C=C2/C(=O)N(CCCCCCCCCCCCOc3ccc(S(=O)(=O)NC(=O)Nc4c5c(cc6c4CCC6)CCC5)cc3)c3ccc(Br)cc32)cc(Br)c1O
[1]
  inhibition: 20.4%
[2]
  inhibition: 35.3%

## COc1ccc(Cl)cc1C(=O)NCCc1ccc(S(=O)(=O)NCCOCCN2C(=O)/C(=C/c3cc(Br)c(O)c(OC)c3)c3cc(Br)ccc32)cc1
[1]
  inhibition: 39%
[2]
  inhibition: 23.1%

## O=C(Nc1c2c(cc3c1CCC3)CCC2)NS(=O)(=O)c1ccc(OCCCCN2C(=O)/C(=C/c3cc(Br)c(O)c(Br)c3)c3cc(Br)ccc32)cc1
[1]
  inhibition: 42.8%
[2]
  inhibition: 49.2%

## COc1cc(/C=C2/C(=O)N(CCCCCCCCOc3ccc(S(=O)(=O)NC(=O)Nc4c5c(cc6c4CCC6)CCC5)cc3)c3ccc(Br)cc32)cc(Br)c1O
[1]
  inhibition: 27.7%
[2]
  inhibition: 19.2%

## O=C(Nc1c2c(cc3c1CCC3)CCC2)NS(=O)(=O)c1ccc(OCCOCCOCCOCCN2C(=O)/C(=C/c3cc(Br)c(O)c(Br)c3)c3cc(I)ccc32)cc1
Mus musculus [3]
  Activity: inactive
[1]
  inhibition: 45.8%
Mus musculus [4]
  Activity: Active
[5]
  Cmax: 555 ng/mL
Mus musculus [6]
  Activity: Active
[2]
  inhibition: 73.6%
Mus musculus [7]
  Activity: Active
Mus musculus [8]
  Activity: Active
Mus musculus [9]
  Activity: inactive
[10]
  bioavailability: 19%
[11]
  half-life: 0.94 h
[12]
  clearance: 28.4 mL/min/kg
[13]
  Vd: 2.31 L/kg
THP-1 [14]
  Activity: Non-Toxic
Mus musculus [15]
  Activity: inactive
THP-1 [16]
  Activity: inactive
Mus musculus [17]
  Activity: inactive
Mus musculus [18]
  Activity: inactive
Mus musculus [19]
  Activity: Active
[20]
  AUC(0-inf): 2970 ng·h/mL
[21]
  Vd: 0.39 L/kg
Mus musculus [22]
  Activity: Active
[23]
  AUC(0-t) at 24 h: 2960 ng·h/mL
[24]
  half-life: 1.26 h
[25]
  AUC(0-t) at 24 h: 551 ng·h/mL
[26]
  AUC(0-inf): 562 ng·h/mL
Mus musculus [27]
  Activity: Active
Mus musculus [28]
  Activity: Dose-Dependent Effect

## O=C(Nc1c2c(cc3c1CCC3)CCC2)NS(=O)(=O)c1ccc(OCCCCCCCCCCCCN2C(=O)/C(=C/c3cc(Br)c(O)c(Br)c3)c3cc(I)ccc32)cc1
[1]
  inhibition: 40.1%
[2]
  inhibition: 7.9%

## COc1ccc(Cl)cc1C(=O)NCCc1ccc(S(=O)(=O)NCCOCCOCCN2C(=O)/C(=C/c3cc(Br)c(O)c(OC)c3)c3cc(Br)ccc32)cc1
[1]
  inhibition: 11%
[2]
  inhibition: 43.1%

## COc1ccc(Cl)cc1C(=O)NCCc1ccc(S(=O)(=O)NCCCCCCCCN2C(=O)/C(=C/c3cc(Br)c(O)c(OC)c3)c3cc(Br)ccc32)cc1
[1]
  inhibition: -7.2%
[2]
  inhibition: 37.9%

## O=C(Nc1c2c(cc3c1CCC3)CCC2)NS(=O)(=O)c1ccc(OCCOCCOCCN2C(=O)/C(=C/c3cc(Br)c(O)c(Br)c3)c3cc(Br)ccc32)cc1
[1]
  inhibition: 17.8%
[2]
  inhibition: 45.2%

## O=C(Nc1c2c(cc3c1CCC3)CCC2)NS(=O)(=O)c1ccc(OCCCCN2C(=O)/C(=C/c3cc(Br)c(O)c(Br)c3)c3cc(I)ccc32)cc1
[1]
  inhibition: 43.1%
[2]
  inhibition: 48.5%

## COc1ccc(Cl)cc1C(=O)NCCc1ccc(S(=O)(=O)NCCOCCOCCOCCN2C(=O)/C(=C/c3cc(Br)c(O)c(OC)c3)c3cc(Br)ccc32)cc1
[1]
  inhibition: 8.2%
[2]
  inhibition: -4.9%

## O=C(Nc1c2c(cc3c1CCC3)CCC2)NS(=O)(=O)c1ccc(OCCOCCN2C(=O)/C(=C/c3cc(Br)c(O)c(Br)c3)c3cc(I)ccc32)cc1
[1]
  inhibition: 70.4%
[2]
  inhibition: 98.2%

## O=C(Nc1c2c(cc3c1CCC3)CCC2)NS(=O)(=O)c1ccc(OCCOCCOCCN2C(=O)/C(=C/c3cc(Br)c(O)c(Br)c3)c3cc(I)ccc32)cc1
[1]
  inhibition: 50.5%
[2]
  inhibition: 41.7%

## O=C(Nc1c2c(cc3c1CCC3)CCC2)NS(=O)(=O)c1ccc(OCCOCCOCCOCCN2C(=O)/C(=C/c3cc(Br)c(O)c(Br)c3)c3cc(Br)ccc32)cc1
[1]
  inhibition: 6.7%
[2]
  inhibition: 66.6%

## O=C(Nc1c2c(cc3c1CCC3)CCC2)NS(=O)(=O)c1ccc(OCCCCCCCCCCCCN2C(=O)/C(=C/c3cc(Br)c(O)c(Br)c3)c3cc(Br)ccc32)cc1
[1]
  inhibition: 14.8%
[2]
  inhibition: 19.5%

## COc1cc(/C=C2/C(=O)N(CCOCCOCCOCCOc3ccc(S(=O)(=O)NC(=O)Nc4c5c(cc6c4CCC6)CCC5)cc3)c3ccc(Br)cc32)cc(Br)c1O
[1]
  inhibition: 57.6%
[2]
  inhibition: 32.7%

## COc1cc(/C=C2/C(=O)N(CCOCCOc3ccc(S(=O)(=O)NC(=O)Nc4c5c(cc6c4CCC6)CCC5)cc3)c3ccc(Br)cc32)cc(Br)c1O
[1]
  inhibition: 35.6%
[2]
  inhibition: 59.2%

## COc1ccc(Cl)cc1C(=O)NCCc1ccc(S(=O)(=O)NCCCCCN2C(=O)/C(=C/c3cc(Br)c(O)c(OC)c3)c3cc(Br)ccc32)cc1
[1]
  inhibition: 50.4%
[2]
  inhibition: 36.2%

## COc1ccc(Cl)cc1C(=O)NCCc1ccc(S(=O)(=O)NCCCCCCCCCCN2C(=O)/C(=C/c3cc(Br)c(O)c(OC)c3)c3cc(Br)ccc32)cc1
[1]
  inhibition: 7.3%
[2]
  inhibition: 28%

## COc1cc(/C=C2/C(=O)N(CCCCOc3ccc(S(=O)(=O)NC(=O)Nc4c5c(cc6c4CCC6)CCC5)cc3)c3ccc(Br)cc32)cc(Br)c1O
[1]
  inhibition: 19.2%
[2]
  inhibition: 40.8%

## O=C(Nc1c2c(cc3c1CCC3)CCC2)NS(=O)(=O)c1ccc(OCCOCCN2C(=O)/C(=C/c3cc(Br)c(O)c(Br)c3)c3cc(Br)ccc32)cc1
[1]
  inhibition: 20.5%
[2]
  inhibition: 67.3%

## O=C(Nc1c2c(cc3c1CCC3)CCC2)NS(=O)(=O)c1ccc(OCCCCCCCCN2C(=O)/C(=C/c3cc(Br)c(O)c(Br)c3)c3cc(I)ccc32)cc1
[1]
  inhibition: 41.9%
[2]
  inhibition: 26.5%

## COc1cc(/C=C2/C(=O)N(CCOCCOCCOc3ccc(S(=O)(=O)NC(=O)Nc4c5c(cc6c4CCC6)CCC5)cc3)c3ccc(Br)cc32)cc(Br)c1O
[1]
  inhibition: 16.5%
[2]
  inhibition: 39.1%

## O=C(Nc1c2c(cc3c1CCC3)CCC2)NS(=O)(=O)c1ccc(OCCCCCCCCN2C(=O)/C(=C/c3cc(Br)c(O)c(Br)c3)c3cc(Br)ccc32)cc1
[1]
  inhibition: -5.3%
[2]
  inhibition: 39.6%

From ChEMBL document CHEMBL5579826, “Discovery of autophagy-tethering compounds as potent NLRP3 degraders for IBD Immunotherapy” (Eur J Med Chem, 2024)
